# Reference: patent US20170290774A1, “NEUROKININ-1 RECEPTOR ANTAGONIST COMPOSITION FOR TREATMENT OF DISEASES AND CONDITIONS OF THE RESPIRATORY TRACT” (PLUS VITECH, S.L., priority 2014, published 2017)
# Like-named read-outs stand apart in the source and are kept apart here.
# Assays:
# [1] = cited from earlier work
# Fibrosis = assay: Area occupied by fibrosis in hematoxylin/eosin sections of sodium hypochlorite aerosol-treated rabbits; type: in vivo, New Zealand albino rabbits
# Text: It is known that the factors TGF-α, TGF-β 1, TGF-β 2, TGF-β 3, SPARC, MMP-3; MMP-7, MMP-9, MMP-11, MMP-13 and MMP-14, TGF-β, NF-kB, EGF, MMP-9, VEGF and TNF-α which are produced by lung cells (pneumocytes, fibroblasts and vascular endothelial cells) and inflammatory cells (macrophages, lymphocytes and polymorphonuclear leukocytes) are involved in the pathophysiology and development of said respiratory tract diseases. […] Herein, 27 New Zealand albino rabbits (New Zealand White Rabbit) with an initial average weight about 3 kg were used in this example. All subjects were administered an aerosol of a solution consisting of a mixture of water and sodium hypochlorite (35 g sodium hypochlorite per liter of water) at a rate of 5 mL of said solution by inhalation three times a day for 7 days (days 1 to 7 of experimentation). Subsequently, from days 3 to 7, a group of 3 rabbits (Group 1) was administered an oral dose of 10 mg/kg body weight per day, another group of 3 rabbits (Group 2) was administered an oral dose of 40 mg/kg body weight per day, a third group (Group 3) was administered an oral dose of 80 mg/kg body weight per day and a fourth group (Group 4) was administered an oral dose of 100 mg/kg body weight per day. […] This mixture was administered as an aerosol by inhalation, also from days 3 to 7, to a group of 3 rabbits (group 5) at a dose of 0.05 mg/kg body weight per day, to another group of three rabbits (Group 6) at a dose of 0.1 mg/kg body weight per day, to another group of three rabbits (Group 7) at a dose of 0.2 mg/kg body weight per day and to another group of three rabbits (Group 8) at a dose of 0.4 mg/kg body weight per day. A placebo consisting only of olive oil was administered from days 3 to 7 to a control group of 3 rabbits (placebo group). In parallel, 3 rabbits were kept under identical conditions but were not administered any treatment nor the aforementioned sodium hypochlorite solution (control group). […] On day 7 of the experiment all animals were euthanized and necropsied. […] Samples were taken at the peripheral level of the lung parenchyma, just below the pleural surface. Tissue samples were also taken from the nasal cavity, pharynx, larynx and bronchi. Immunohistochemistry studies were performed for all samples to evaluate the levels of the markers TGF-α, TGF-β 1, TGF-β 2, TGF-β 3 SPARC, MMP-3; MMP-7, MMP-9, MMP-11, MMP-14, TGF-β, TNF-α and VEGF. The samples were then allowed to cool to room temperature over 10 minutes. Endogenous peroxidase activity was blocked by treatment with 3% hydrogen peroxide over 30 min at room temperature. […] In order to verify the expression of NK1 receptors, the cell samples were incubated in the presence of anti-NK1 antibodies ([…], Sigma-Aldrich) diluted 1:1000 at 4° C. overnight. After this time they were washed in 0.05M Tris buffer at room temperature. Subsequently, Envision System-HRP (Dako) reagents were added for 30 min at room temperature. Once this time had expired, the samples were again washed with 0.05 M Tris buffer, and immunoreactivity was visualized by light microscopy with a chromogenic solution with 3,3'-diaminobenzidine (DAB+; Dako, USA). In order to differentiate the cell nuclei, these were lightly stained with haematoxylin. Samples that were not incubated with the primary antibody, but wherein this was replaced by a non-immune serum were used as negative controls. In order to evaluate markers in these immunohistochemical assays, specific primary antibodies were used against them at a concentration 1:1000, as detailed in Table 12. Furthermore, for each of the sampled sections were placed on slides and stained with haematoxylin-eosin before subsequently being deparaffinised by immersion in xylene and then rehydrated through immersion in a series of solutions containing decreasing concentrations of ethanol and, finally, immersing them in water, eosin (20 seconds) and hematoxylin (40 seconds). All experiments were performed in sextuplicate. […]
# [2] = single oral dose of 125 mg of Emend
# [3] = terminal nephropathy with hemodialysis, single dose of 240 mg of Emend
compound,measurement,setting,value
"C[C@@H](OC1OCCN(Cc2nc(=O)[nH][nH]2)C1c1ccc(F)cc1)c1cc(C(F)(F)F)cc(C(F)(F)F)c1 (stereo in doubt) [Aprepitant, 5-([(2R,3S)-2-((R)-1-[3,5-bis(trifluoromethyl)phenyl]ethoxy)-3-(4-fluorophenyl)morpholino]methyl)-1H-1,2,4-triazol-3(2H)-one]",effect of mild hepatic insufficiency on pharmacokinetics,[1]; Child-Pugh score of 5 to 6,does not affect to a clinically relevant degree
same,oral bioavailability,[1]; Emend capsule of 80 mg,67%
same,oral bioavailability,[1]; Emend capsule of 125 mg,59%
same,linearity of pharmacokinetics,[1]; clinical dose interval,non-linear pharmacokinetics
same,AUC0-24 h greater in elderly (≧65 years) than younger adults,"[1]; day 1, oral 125 mg Emend",21%
same,Cmax greater in elderly than younger adults,[1]; day 1,10%
same,AUC0-24 h greater in elderly (≧65 years) than younger adults,"[1]; day 5, 80 mg once a day",36%
same,Cmax greater in elderly than younger adults,[1]; day 5,24%
same,share of plasma radioactivity,"[1]; healthy young adults, over 72 hours after single 100 mg intravenous dose of [C14] prodrug",approximately 19%
same,increase in AUC0-∞ greater in proportion to the dose,"[1]; healthy young adults, single doses of 80 mg and 125 mg, postprandial",26%
same,metabolites identified in human plasma,[1]; human plasma,12
same,increase of AUC with food,[1]; oral capsule with standard breakfast of approximately 800 Kcal,up to 40%
same,Tmax,[1]; oral,approximately 4 hours
same,reduction of AUC0-∞ of total aprepitant with respect to healthy patients,"[1]; severe renal insufficiency (CrCl<30 ml/min), single dose of 240 mg of Emend",21%
same,reduction of Cmax with respect to healthy patients,"[1]; severe renal insufficiency, single dose of 240 mg of Emend",32%
same,Cmax greater in women than men,[1]; [2],16%
same,half-life greater in women than men,[1]; [2],25%
same,reduction of AUC0-∞ of total aprepitant,[1]; [3],42%
same,reduction of Cmax,[1]; [3],32%
same,Percent increase in Fibrosis with respect to the control group,"Fibrosis; bronchial tissue, Group 1, oral 10 mg/kg per day","2,500.10%"
same,Percent increase in Fibrosis with respect to the control group,"Fibrosis; bronchial tissue, Group 2, oral 40 mg/kg per day","2,000.00%"
same,Percent increase in Fibrosis with respect to the control group,"Fibrosis; bronchial tissue, Group 3, oral 80 mg/kg per day","1,500.00%"
same,Percent increase in Fibrosis with respect to the control group,"Fibrosis; bronchial tissue, Group 4, oral 100 mg/kg per day","1,000.00%"
same,% Med G5/C: percent increase in Fibrosis with respect to the control group,"Fibrosis; bronchial tissue, Group 5","2,000.00%"
same,% Med G6/C: percent increase in Fibrosis with respect to the control group,"Fibrosis; bronchial tissue, Group 6","1,000.00%"
same,% Med G7/C: percent increase in Fibrosis with respect to the control group,"Fibrosis; bronchial tissue, Group 7",500.00%
same,% Med G8/C: percent increase in Fibrosis with respect to the control group,"Fibrosis; bronchial tissue, Group 8",100.50%
same,Percent increase in Fibrosis with respect to the control group,"Fibrosis; laryngeal tissue, Group 1, oral 10 mg/kg per day",250.50%
same,Percent increase in Fibrosis with respect to the control group,"Fibrosis; laryngeal tissue, Group 2, oral 40 mg/kg per day",225.70%
same,Percent increase in Fibrosis with respect to the control group,"Fibrosis; laryngeal tissue, Group 3, oral 80 mg/kg per day",200.57%
same,Percent increase in Fibrosis with respect to the control group,"Fibrosis; laryngeal tissue, Group 4, oral 100 mg/kg per day",150.70%
same,Percent increase in Fibrosis with respect to the control group,"Fibrosis; laryngeal tissue, Group 5, inhalation 0.05 mg/kg per day",375.50%
same,Percent increase in Fibrosis with respect to the control group,"Fibrosis; laryngeal tissue, Group 6, inhalation 0.1 mg/kg per day",275.45%
same,Percent increase in Fibrosis with respect to the control group,"Fibrosis; laryngeal tissue, Group 7, inhalation 0.2 mg/kg per day",200.60%
same,Percent increase in Fibrosis with respect to the control group,"Fibrosis; laryngeal tissue, Group 8, inhalation 0.4 mg/kg per day",125.40%
same,Percent increase in Fibrosis with respect to the control group,"Fibrosis; lung tissue, Group 1, oral 10 mg/kg per day","1,272.22%"
same,Percent increase in Fibrosis with respect to the control group,"Fibrosis; lung tissue, Group 2, oral 40 mg/kg per day",683.33%
same,Percent increase in Fibrosis with respect to the control group,"Fibrosis; lung tissue, Group 3, oral 80 mg/kg per day",611.11%
same,Percent increase in Fibrosis with respect to the control group,"Fibrosis; lung tissue, Group 4, oral 100 mg/kg per day",516.67%
same,Percent increase in Fibrosis with respect to the control group,"Fibrosis; lung tissue, Group 5, inhalation 0.05 mg/kg per day","1,127.78%"
same,Percent increase in Fibrosis with respect to the control group,"Fibrosis; lung tissue, Group 6, inhalation 0.1 mg/kg per day",433.33%
same,Percent increase in Fibrosis with respect to the control group,"Fibrosis; lung tissue, Group 7, inhalation 0.2 mg/kg per day",233.33%
same,Percent increase in Fibrosis with respect to the control group,"Fibrosis; lung tissue, Group 8, inhalation 0.4 mg/kg per day",161.11%
same,Percent increase in Fibrosis with respect to the control group,"Fibrosis; nasal cavity tissue, Group 1, oral 10 mg/kg per day",513.89%
same,Percent increase in Fibrosis with respect to the control group,"Fibrosis; nasal cavity tissue, Group 2, oral 40 mg/kg per day",375.00%
same,Percent increase in Fibrosis with respect to the control group,"Fibrosis; nasal cavity tissue, Group 3, oral 80 mg/kg per day",300.00%
same,Percent increase in Fibrosis with respect to the control group,"Fibrosis; nasal cavity tissue, Group 4, oral 100 mg/kg per day",300.00%
same,Percent increase in Fibrosis with respect to the control group,"Fibrosis; nasal cavity tissue, Group 5, inhalation 0.05 mg/kg per day",700.00%
same,Percent increase in Fibrosis with respect to the control group,"Fibrosis; nasal cavity tissue, Group 6, inhalation 0.1 mg/kg per day",319.44%
same,Percent increase in Fibrosis with respect to the control group,"Fibrosis; nasal cavity tissue, Group 7, inhalation 0.2 mg/kg per day",163.89%
same,Percent increase in Fibrosis with respect to the control group,"Fibrosis; nasal cavity tissue, Group 8, inhalation 0.4 mg/kg per day",147.22%
same,Percent increase in Fibrosis with respect to the control group,"Fibrosis; pharyngeal tissue, Group 1, oral 10 mg/kg per day",489.54%
same,Percent increase in Fibrosis with respect to the control group,"Fibrosis; pharyngeal tissue, Group 2, oral 40 mg/kg per day",457.45%
same,Percent increase in Fibrosis with respect to the control group,"Fibrosis; pharyngeal tissue, Group 3, oral 80 mg/kg per day",380.00%
same,Percent increase in Fibrosis with respect to the control group,"Fibrosis; pharyngeal tissue, Group 4, oral 100 mg/kg per day",275.00%
same,Percent increase in Fibrosis with respect to the control group,"Fibrosis; pharyngeal tissue, Group 5, inhalation 0.05 mg/kg per day",480.30%
same,Percent increase in Fibrosis with respect to the control group,"Fibrosis; pharyngeal tissue, Group 6, inhalation 0.1 mg/kg per day",258.34%
same,Percent increase in Fibrosis with respect to the control group,"Fibrosis; pharyngeal tissue, Group 7, inhalation 0.2 mg/kg per day",152.23%
same,Percent increase in Fibrosis with respect to the control group,"Fibrosis; pharyngeal tissue, Group 8, inhalation 0.4 mg/kg per day",128.32%
